The values below come from patent US20240383874A1, “BENZENE RING DERIVATIVE, AND COMPOSITION AND PHARMACEUTICAL USE THEREOF” (Xizang Haisco Pharmaceutical Co., Ltd., priority 2020, published 2024).

Where a name gives a salt, the structure may show the parent alone.

The first assay deals with 22RV1 cells. Put plainly: Experiment 2 on inhibiting 22RV1 cell proliferation (7 days, CellTiter-Glo). It is filed as cell-based. The note with it: 1% css-FBS phenol red-free medium, incubated with compound 7 days, read-out: IC50 values on proliferation inhibition of 22RV1 cells. How it is done: Prostate cancer cells 22RV1 were purchased from ATCC, the cell medium was RPMI 1640+10% FBS, and the cells were cultured in an incubator at 37° C. under 5% CO2. On day 1, the cells in an exponential phase were collected. With a 1% css-FBS phenol red-free medium, the cell suspension was adjusted to a corresponding concentration, plated at 2000 cells/well and incubated overnight. On day 2, compounds at different concentrations were added, and the plate was placed in the incubator and incubated for further 7 days. After the incubation was completed, according to operation instructions for a CellTiter-Glo kit (Promega, G7573), 50 μL of CTG solution, which was already pre-melted and equilibrated to room temperature, was added to each well, and the mixtures were uniformly mixed for 2 min using a microplate shaker. The plate was placed at room temperature for 10 min, and then fluorescence signal values were measured using a microplate reader (PHERAstar FSX). The results were processed according to formula (2), the survival rate of the compound at different concentrations was calculated, and the IC50 value of the compound with a survival rate of 50% was calculated using origin9.2 software with DoseResp function, wherein RLU compound was the readout of the treated group, and RLU control was the average value of the DMSO vehicle control group.
Background: ATP-based viability assays read luminescence as a measure of living cells.
As for `CC(C)(c1ccc(OCc2ccnc(N3CCC4(CC3)CCN(C3CCN(CC5CCN(c6ccc7c(c6)C(=O)N(C6CCC(=O)NC6=O)C7=O)CC5)CC3)CC4)n2)cc1)c1cc(Cl)c(OCCCl)c(C#N)c1` (stereo not drawn) [Compound 27, 3-chloro-2-(2-chloroethoxy)-5-(2-(4-((2-(9-(1-((1-(2-(2,6-dioxopiperidin-3-yl)-1,3-dioxoisoindolin-5-yl)piperidin-4-yl)methyl)piperidin-4-yl)-3,9-diazaspiro[5.5]undecan-3-yl)pyrimidin-4-yl)methoxy)phenyl)propan-2-yl)benzonitrile], the IC50 amounted to 0.663 µM.
As to `CC(C)(c1ccc(OCc2ccnc(N3CCN(CC4CCN(CC5CCN(c6ccc7c(c6)C(=O)N(C6CCC(=O)NC6=O)C7=O)CC5)CC4)CC3)n2)cc1)c1cc(Cl)c(OCCCl)c(C#N)c1` (stereo not drawn) [Compound 13, 3-chloro-2-(2-chloroethoxy)-5-(2-(4-((2-(4-((1-((1-(2-(2,6-dioxopiperidin-3-yl)-1,3-dioxoisoindolin-5-yl)piperidin-4-yl)methyl)piperidin-4-yl)methyl)piperazin-1-yl)pyrimidin-4-yl)methoxy)phenyl)propan-2-yl)benzonitrile], the IC50 came to 0.721 µM.
Same read-out and setting: the same measure for `CC(C)(c1ccc(OCc2ccnc(N3CCC4(CC3)CN(C3CCN(C5CN(c6ccc7c(c6)C(=O)N(C6CCC(=O)NC6=O)C7=O)C5)CC3)C4)n2)cc1)c1cc(Cl)c(OCCCl)c(C#N)c1` (stereo not drawn) [Compound 20, 3-chloro-2-(2-chloroethoxy)-5-(2-(4-((2-(2-(1-(1-(2-(2,6-dioxopiperidin-3-yl)-1,3-dioxoisoindolin-5-yl)azetidin-3-yl)piperidin-4-yl)-2,7-diazaspiro[3.5]nonan-7-yl)pyrimidin-4-yl)methoxy)phenyl)propan-2-yl)benzonitrile]: 0.954 µM; for `CC(C)(c1ccc(OCc2ccnc(N3CCN(CC4CCN(C5CCN(c6cccc7c6C(=O)N(C6CCC(=O)NC6=O)C7=O)CC5)CC4)CC3)n2)cc1)c1cc(Cl)c(OCCCl)c(C#N)c1` (stereo not drawn) [Compound 12, 3-chloro-2-(2-chloroethoxy)-5-(2-(4-((2-(4-((1′-(2-(2,6-dioxopiperidin-3-yl)-1,3-dioxoisoindolin-4-yl)-[1,4′-bipiperidin]-4-yl)methyl)piperazin-1-yl)pyrimidin-4-yl)methoxy)phenyl)propan-2-yl)benzonitrile]: 0.804 µM.

The same assay, now with this note: Homo sapiens, 22Rv1, 168 h, 1% css-FBS phenol red-free medium, incubated with compound 7 days, read-out: IC50 values on proliferation inhibition of 22RV1 cells.
In the case of `CC(C)(c1ccc(OCc2ccnc(N3CCN(C4CC5(CCN(C6CC7(CCN(c8ccc9c(c8)C(=O)N(C8CCC(=O)NC8=O)C9=O)CC7)C6)CC5)C4)CC3)n2)cc1)c1cc(Cl)cc(C#N)c1` (stereo not drawn) [Compound 59 trifluoroacetate, 3-chloro-5-(2-(4-((2-(4-(7-(2-(2,6-dioxopiperidin-3-yl)-1,3-dioxoisoindolin-5-yl)-7,7′-diaza[2,7′-bispiro[3.5]nonan]-2′-yl)piperazin-1-yl)pyrimidin-4-yl)methoxy)phenyl)propan-2-yl)benzonitrile], the IC50 was 0.647 µM.
As for `Cn1c(=O)n(C2CCC(=O)NC2=O)c2cccc(CN3CC(N4CCC5(CCN(c6nccc(COc7ccc(C(C)(C)c8cc(Cl)c(OCCCl)c(C#N)c8)cc7)n6)CC5)CC4)C3)c21` (stereo not drawn) [Compound 29 trifluoroacetate, 3-chloro-2-(2-chloroethoxy)-5-(2-(4-((2-(9-(1-((1-(2,6-dioxopiperidin-3-yl)-3-methyl-2-oxo-2,3-dihydro-1H-benzo[d]imidazol-4-yl)methyl)azetidin-3-yl)-3,9-diazaspiro[5.5]undecan-3-yl)pyrimidin-4-yl)methoxy)phenyl)propan-2-yl)benzonitrile], the IC50 worked out at 0.788 µM.
As for `Cn1c(=O)n(C2CCC(=O)NC2=O)c2ccc(C3CCN(C4CC5(CCN(c6nccc(COc7ccc(C(C)(C)c8cc(Cl)cc(C#N)c8)cc7)n6)CC5)C4)CC3)cc21` (stereo not drawn) [Compound 106 trifluoroacetate, 3-chloro-5-(2-(4-((2-(2-(4-(1-(2,6-dioxopiperidin-3-yl)-3-methyl-2-oxo-2,3-dihydro-1H-benzo[d]imidazol-5-yl)piperidin-1-yl)-7-azaspiro[3.5]nonan-7-yl)pyrimidin-4-yl)methoxy)phenyl)propan-2-yl)benzonitrile], the IC50 stood at 0.55 µM.
`CC(C)(c1ccc(OCc2ccnc(N3CCN(C4CCN(C5CCC6(CC5)CN(c5ccc7c(c5)C(=O)N(C5CCC(=O)NC5=O)C7=O)C6)CC4)CC3)n2)cc1)c1cc(Cl)cc(C#N)c1` (stereo not drawn) [Compound 46 trifluoroacetate, 3-chloro-5-(2-(4-((2-(4-(1-(2-(2-(2,6-dioxopiperidin-3-yl)-1,3-dioxoisoindolin-5-yl)-2-azaspiro[3.5]nonan-7-yl)piperidin-4-yl)piperazin-1-yl)pyrimidin-4-yl)methoxy)phenyl)propan-2-yl)benzonitrile]: the IC50 stood at 0.461 µM.
`CC(C)(c1ccc(OCc2ccnc(N3CCC4(CC3)CCN(C3CCN(C5CN(c6ccc7c(c6)C(=O)N(C6CCC(=O)NC6=O)C7=O)C5)CC3)CC4)n2)cc1)c1cc(Cl)c(OCCCl)c(C#N)c1` (stereo not drawn) [Compound 30 trifluoroacetate, 3-chloro-2-(2-chloroethoxy)-5-(2-(4-((2-(9-(1-(1-(2-(2,6-dioxopiperidin-3-yl)-1,3-dioxoisoindolin-5-yl)azetidin-3-yl)piperidin-4-yl)-3,9-diazaspiro[5.5]undecan-3-yl)pyrimidin-4-yl)methoxy)phenyl)propan-2-yl)benzonitrile]: the IC50 is 0.834 µM.
Still for that read-out and setting: the same measure for `Cn1c(=O)n(C2CCC(=O)NC2=O)c2ccc(C3CCN(CC4CCN(c5nccc(COc6ccc(C(C)(C)c7cc(Cl)cc(C#N)c7)cc6)n5)CC4)CC3)cc21` (stereo not drawn) [Compound 105 trifluoroacetate, 3-chloro-5-(2-(4-((2-(4-((4-(1-(2,6-dioxopiperidin-3-yl)-3-methyl-2-oxo-2,3-dihydro-1H-benzo[d]imidazol-5-yl)piperidin-1-yl)methyl)piperidin-1-yl)pyrimidin-4-yl)methoxy)phenyl)propan-2-yl)benzonitrile]: 0.575 µM; for `Cc1ncsc1-c1ccc([C@H](C)NC(=O)[C@@H]2C[C@@H](O)CN2C(=O)[C@@H](NC(=O)CN2CCC(N3CCC(CN4CCN(c5nccc(COc6ccc(C(C)(C)c7cc(Cl)cc(C#N)c7)cc6)n5)CC4)CC3)CC2)C(C)(C)C)cc1` [Compound 43 trifluoroacetate, (2S,4R)-1-((S)-2-(2-(4-((4-(4-((4-(2-(3-chloro-5-cyanophenyl)propan-2-yl)phenoxy)methyl)pyrimidin-2-yl)piperazin-1-yl)methyl)-[1,4′-bipiperidin]-1′-yl)acetamido)-3,3-dimethylbutanoyl)-4-hydroxy-N-((S)-1-(4-(4-methylthiazol-5-yl)phenyl)ethyl)pyrrolidine-2-carboxamide]: 0.094 µM; for `Cn1c(=O)n(C2CCC(=O)NC2=O)c2cccc(C3CCN(CC4(F)CCN(C5CC6(CCN(c7nccc(COc8ccc(C(C)(C)c9cc(Cl)cc(C#N)c9)cc8)n7)CC6)C5)CC4)CC3)c21` (stereo not drawn) [Compound 115 trifluoroacetate, 3-chloro-5-(2-(4-((2-(2-(4-((4-(1-(2,6-dioxopiperidin-3-yl)-3-methyl-2-oxo-2,3-dihydro-1H-benzo[d]imidazol-4-yl)piperidin-1-yl)methyl)-4-fluoropiperidin-1-yl)-7-azaspiro[3.5]nonan-7-yl)pyrimidin-4-yl)methoxy)phenyl)propan-2-yl)benzonitrile]: 0.955 µM.
Still for that read-out and setting: the result for `CC(C)(c1ccc(OCc2ccnc(N3CCC4(CC3)CN(C3CN(C5CN(c6ccc7c(c6)C(=O)N(C6CCC(=O)NC6=O)C7=O)C5)C3)C4)n2)cc1)c1cc(Cl)cc(C#N)c1` (stereo not drawn) [Compound 76 trifluoroacetate, 3-chloro-5-(2-(4-((2-(2-(1′-(2-(2,6-dioxopiperidin-3-yl)-1,3-dioxoisoindolin-5-yl)-[1,3′-biazetidin]-3-yl)-2,7-diazaspiro[3.5]nonan-7-yl)pyrimidin-4-yl)methoxy)phenyl)propan-2-yl)benzonitrile] reads 0.475 µM; that for `COc1c(Cl)cc(C(C)(C)c2ccc(OCc3ccnc(N4CCC(CN5CCC(c6ccc7c(c6)n(C)c(=O)n7C6CCC(=O)NC6=O)CC5)CC4)n3)cc2)cc1C#N` (stereo not drawn) [Compound 92 trifluoroacetate, 3-chloro-5-(2-(4-((2-(4-((4-(1-(2,6-dioxopiperidin-3-yl)-3-methyl-2-oxo-2,3-dihydro-1H-benzo[d]imidazol-5-yl)piperidin-1-yl)methyl)piperidin-1-yl)pyrimidin-4-yl)methoxy)phenyl)propan-2-yl)-2-methoxybenzonitrile], 0.9 µM.
Turning to `Cn1c(=O)n(C2CCC(=O)NC2=O)c2cccc(CN3CC(N4CCC(N5CCC6(CCN(c7nccc(COc8ccc(C(C)(C)c9cc(Cl)c(OCCCl)c(C#N)c9)cc8)n7)CC6)CC5)CC4)C3)c21` (stereo not drawn) [Compound 31 trifluoroacetate, 3-chloro-2-(2-chloroethoxy)-5-(2-(4-((2-(9-(1-(1-((1-(2,6-dioxopiperidin-3-yl)-3-methyl-2-oxo-2,3-dihydro-1H-benzo[d]imidazol-4-yl)methyl)azetidin-3-yl)piperidin-4-yl)-3,9-diazaspiro[5.5]undecan-3-yl)pyrimidin-4-yl)methoxy)phenyl)propan-2-yl)benzonitrile], the IC50 was found to be 0.401 µM.
